For one assay, the target named is T1, adenosine A1 receptor (Rattus norvegicus, UniProt P25099).
T1 construct: Whole brain minus cerebellum and brainstem from male Long Evans rats; from tissue; host or cells: whole brain minus cerebellum and brainstem, male Long Evans rats (membranes)
T1 sequence (P25099 1-326): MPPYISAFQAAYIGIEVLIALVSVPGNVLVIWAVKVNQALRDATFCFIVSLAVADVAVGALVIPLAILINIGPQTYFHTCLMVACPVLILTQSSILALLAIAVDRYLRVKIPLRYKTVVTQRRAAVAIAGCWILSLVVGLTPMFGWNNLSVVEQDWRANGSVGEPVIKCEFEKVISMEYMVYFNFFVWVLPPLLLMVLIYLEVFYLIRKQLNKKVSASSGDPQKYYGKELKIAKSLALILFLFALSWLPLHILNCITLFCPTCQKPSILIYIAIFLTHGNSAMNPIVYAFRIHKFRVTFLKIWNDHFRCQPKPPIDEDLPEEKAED
In words: Adenosine Receptor Binding - A1 Receptor Affinity (RBA1), [3H]-N6-cyclohexyladenosine displacement. The note with it: [3H]-CHA 1.0 nM, rat brain membranes, 25° C., one hour; read-out: RBA-1, IC50 for adenosine A1 receptor affinity. Here is the method: Whole brain minus cerebellum and brainstem from male Long Evans rats (150-200 g) was homogenized in 30 volumes of ice-cold 0.05M Tris-HCl buffer pH 7.7 using a Brinkman Polytron PT-10, (setting number 6 for 20 seconds) and centrifuged for ten minutes at 20,000×g (Sorvall RC-2), 4° C. The supernatant was discarded, and the pellet was resuspended and centrifuged as before. […] The homogenate was again centrifuged, and the final pellet was resuspended in ice-cold 0.05 M Tris-HCl buffer pH 7.7 to a concentration of 20 mg/ml original wet tissue weight and used immediately. […] Incubation volume was 2 ml. […] The filters were rinsed three times with 5 ml of ice cold 0.05 M Tris-HCl buffer pH 7.7. The radio-labeled ligand retained on the filter was measured by liquid scintillation spectrophotometry after shaking the filters for one hour or longer on a mechanical shaker in 10 ml of Beckman Ready-Solv HP scintillation cocktail. […] The Hill coefficient was calculated by linear regression of the line obtained by plotting the log of the bound radioligand vs the log of the [formula] The maximal number of binding sites (Bmax) was calculated from the Scatchard plot.

The test system of assay [1] is pentobarbital-anesthetized dog. The assay is described as follows: In Vivo Myocardial Inotropic Activity in Anesthetized Dog (CVAD). More on the design: species or system dog (adult mongrel). The note with it: for change in vivo at 0.1 mg/kg / change in vivo at 0.31 mg/kg / change in vivo at 1 mg/kg / change in vivo at 3.1 mg/kg / change in vivo at 10 mg/kg / change in vivo at 0.3 mg/kg: Canis lupus familiaris, iv; for change in vivo at 0.1 mg/kg: 0.10 mg/kg IV; for change in vivo at 0.31 mg/kg: 0.31 mg/kg IV; for change in vivo at 1 mg/kg: 1.00 mg/kg IV; for change in vivo at 3.1 mg/kg: 3.10 mg/kg IV; for change in vivo at 10 mg/kg: 10.00 mg/kg IV; for change in vivo at 0.3 mg/kg: 0.30 mg/kg IV. Here is the method: This test procedure is described in the following paragraphs.
This screen consists of determining the effects of increasing intravenous doses of compound on mycardial contractility (dP/dt max of left ventricular blood pressure), heart rate, and aortic blood pressure of the pentobarbital-anesthetized dog.
Adult mongrel dogs of either sex are anesthetized with pentobarbital, 35 mg/kg, IV, and are subsequently maintained under anesthesia with a continuous infusion of pentobarbital, 3.5 mg/kg/hour. The trachea is intubated but the animals are permitted to breathe spontaneously. A cannula is inserted into the femoral vein for administrating test agents. A Millar catheter tip pressure transducer or a fluid filled catheter is inserted into the ascending aorta via the femoral artery for measuring aortic blood pressure. A Millar catheter tip pressure transducer is passed into the left ventricle via the left carotid artery for measuring left ventricular blood pressure. Needle electrodes are placed subcutaneously for recording a lead II electrocardiogram (ECG).
Left ventricular and aortic blood pressures are recorded on a strip chart recorder. Heart rate, using a biotachometer triggered from the R wave of the ECG, and the first derivative of left ventricular blood pressure (dP/dt), obtained with a differentiator amplifier coupled to the corresponding pressure amplifier, are also recorded. A period of at least 30 minutes is utilized to obtain control data prior to administration of test compound.
Ethanol or dimethylacetamide can be used as solvents if adequate dilutions can be made. Appropriate vehicle controls are administered when needed.
Each dose of the test compound is administered in a volume of […] over a period of one minute.

The next assay has as its system Type 3 Phosphodiesterase. In words: Phosphodiesterase (PDE) Inhibition, Type 3 Phosphodiesterase. In kind it is biochemical, bovine (coronary arteries). The note with it: Type 3 PDE, at 10^-5 M, substrate 3H-cAMP 1.0 μM. From the text:
(§1) The method of Thompson, et al (Thompson, W. J., Terasaki, W. L., Epstein, P. M., Strada, S. J., Adv. Cyclic Nucleotide Res., 10:69-92, 1979), with minor modifications, was used to isolate phosphodiesterases from vascular smooth muscle. Bovine coronary arteries (right, anterior descending, and left circumflex arteries) from hearts obtained from a local slaughterhouse were used for these studies. Arteries from two hearts were used for each isolation. Hearts were kept on ice and the arteries were dissected within two hours after the animals were sacrificed. After removing all fat and connective tissue, the arteries were everted, cut into cubes with a single edge razor blade and homogenized with a Brinkman Polytron three times at a rheostat setting of 10.0 in four volumes of the PDE isolation buffer (10 mM Tris-HCl/pH 7.5, 2 mM MgCl2, and 1 mM dithiothreitol). The resulting homogenate was sonicated (30 sec/ml homogenate) and then centrifuged at 30,000 xg for 20 minutes. This and all subsequent procedures were performed at 4° C. The resulting supernatant was filtered through four layers of gauze, and applied to a DEAE-cellulose column (30×1.5 cm), prepared as described by Cheung (Cheung, W. Y., Biochim. Biophys. Acta, 191:303-315, 1969), and equilibrated with freshly prepared 70 mM sodium acetate/5 mM 2-mercaptoethanol (pH 6.5). The column was then washed with 2-3 bed volumes of sodium acetate/2-mercaptoethanol, after which the phosphodiesterases were eluted from the column using a continuous 70-1,000 mM sodium acetate gradient (pH 6.5, containing 5 mM 2-mercaptoethanol; total volume 400 ml). The flow rate was approximately equal to 25 ml/hr. Eight ml fractions were collected and assayed for cyclic AMP- and cyclic GMP-phosphodiesterase activity in the presence and absence of 0.1 units of calmodulin and 10 mM CaCl2. Appropriate fractions were pooled and dialyzed against 70 mM sodium acetate/5 mM 2-mercaptoethanol for 20 hours.
(§2) Following complete separation, the combined phosphodiesterase fractions were concentrated to 14% of the original volume using an Amicon ultrafiltration cell fitted with a UM-10 membrane, according to the method of Wells, et al (Wells, J. N., Baird, C. E., Wu, Y. J., Hardman, J. G., Biochim. Biophys. Acta, 384:430-442, 1975). Following concentration, the protein was then diluted to 65% with ethylene glycol monoethyl ether, and stored at -20° C.
(§3) Phosphodiesterase activity was measured as described previously (Weishaar, P. E., Quade, M., Boyd, D., Schenden, J., Mark, S. S., Kaplan, H. R., Drug Devel. Res., 3:517-534, 1983), in a reaction medium containing 40 mM Tris-HCl (pH 8.0), 5 mM MgCl and 4 mM 2-mercaptoethanol. Unless otherwise noted, the concentration of substrate (^3 H-cyclic AMP or ^3 H-cyclic GMP) was 1.0 μM. All agents examined were dissolved in dimethyl sulfoxide (DMSO). Final concentration of the reaction medium was either 2.5% (cardiac and platelet studies) or 1.25% (smooth muscle studies). This concentration of DMSO produced an approximately 10% inhibition of enzyme activity.

The subject of a further assay is Type 1 Phosphodiesterase. The assay is described as follows: Phosphodiesterase (PDE) Inhibition, Type 1 Phosphodiesterase. The class given is biochemical, bovine (coronary arteries). The note with it: Type 1 PDE, at 10^-5 M; for % Inhibition of hydrolysis of 3H-cAMP: substrate 3H-cAMP 1.0 μM; for % Inhibition of hydrolysis of 3H-cGMP: substrate 3H-cGMP 1.0 μM.
From the text: as §1, §2, §3

[2] abbreviates: read-out: Percent Change Heart Rate.
Setting [3] is: read-out: Percent Change Myocardial Contractility.
Setting [4] is: intravenously at about 0.01 to 0.31 mg/kg.
[5] abbreviates: read-out: Percent Change Blood Pressure.

Where two headings read alike, the source gives them in different places.

For `Cc1nn(C)c2c(=O)[nH]c(Cc3ccccc3)nc12` [Example 1, 1,3-Dimethyl-5-benzylpyrazolo[4,3-d]pyrimidine-7-one], the IC50 at adenosine A1 receptor came out at 13.1 µM. Besides, in assay [1] (setting [2]), the change in vivo at 0.1 mg/kg amounted to 2%, the change in vivo at 0.31 mg/kg came out at 3%, the change in vivo at 1 mg/kg turned out to be 6% and the change in vivo at 3.1 mg/kg is 14%. Moreover, in assay [1] (setting [2]), the change in vivo at 10 mg/kg stood at 38%. Besides, in assay [1] (setting [3]), the change in vivo at 0.1 mg/kg is 8%, the change in vivo at 0.31 mg/kg is 12%, the change in vivo at 1 mg/kg was found to be 23% and the change in vivo at 3.1 mg/kg came to 42%. The change in vivo at 10 mg/kg in assay [1] (setting [3]) was found to be 95%. Besides, in assay [1] (setting [4]), the “blood pressure (in words)” value is given as “a moderate reduction in blood pressure”, the “cardiac contractility (in words)” value is reported as “dose related significant increases in cardiac contractility” and the “heart rate (in words)” value is reported as “only low or minimal changes in heart rate”. Besides, the “% Inhibition of hydrolysis of 3H-cAMP” value in the assay on Type 3 Phosphodiesterase came out at 23%. Further, in the assay on Type 1 Phosphodiesterase, the “% Inhibition of hydrolysis of 3H-cAMP” value was found to be 80% and the “% Inhibition of hydrolysis of 3H-cGMP” value was 71%.

As for `Cc1nn(C)c2c(=O)[nH]c(-c3ccncc3)nc12` [Example 2, 1,3-Dimethyl-5-(4-pyridyl)-pyrazolo[4,3-d]pyrimidine-7-one], the IC50 on adenosine A1 receptor came out at 0.953 µM. In assay [1] (setting [5]), the change in vivo at 0.1 mg/kg was found to be 0%. In assay [1] (setting [2]), the change in vivo at 0.1 mg/kg was found to be 1%, the change in vivo at 0.31 mg/kg came out at 1%, the change in vivo at 1 mg/kg was 28% and the change in vivo at 3.1 mg/kg is 49%. Besides, in assay [1] (setting [3]), the change in vivo at 0.1 mg/kg came out at 4%, the change in vivo at 0.31 mg/kg came to 7%, the change in vivo at 1 mg/kg was found to be 53% and the change in vivo at 3.1 mg/kg amounted to 121%. The “% Inhibition of hydrolysis of 3H-cAMP” value in the assay on Type 3 Phosphodiesterase came to 20%. Besides, in the assay with Type 1 Phosphodiesterase, the “% Inhibition of hydrolysis of 3H-cAMP” value amounted to 5% and the “% Inhibition of hydrolysis of 3H-cGMP” value stood at 13%.

For the compound `CCn1nc(C)c2nc(-c3ccncc3)[nH]c(=O)c21` [Example 3, 1-Ethyl-3-methyl-5-(4-pyridyl)pyrazolo[4,3-d]pyrimidine-7-one], at adenosine A1 receptor, the IC50 came out at 0.237 µM. Also, in assay [1] (setting [5]), the change in vivo at 0.1 mg/kg came to 2%, the change in vivo at 0.3 mg/kg amounted to 2%, the change in vivo at 1 mg/kg was found to be 2% and the change in vivo at 3.1 mg/kg turned out to be 8%. In assay [1] (setting [2]), the change in vivo at 0.1 mg/kg amounted to 4%, the change in vivo at 0.3 mg/kg was 7%, the change in vivo at 1 mg/kg is -1% and the change in vivo at 3.1 mg/kg was 16%. Moreover, in assay [1] (setting [3]), the change in vivo at 0.1 mg/kg amounted to 12%, the change in vivo at 0.3 mg/kg turned out to be 20%, the change in vivo at 1 mg/kg was determined as 47% and the change in vivo at 3.1 mg/kg came to 91%. Further, the “% Inhibition of hydrolysis of 3H-cAMP” value in the assay on Type 3 Phosphodiesterase is 55%. In the assay on Type 1 Phosphodiesterase, the “% Inhibition of hydrolysis of 3H-cAMP” value is 33% and the “% Inhibition of hydrolysis of 3H-cGMP” value is on record as 19%.

As to `COc1ccc(-c2nc3c(C)nn(C)c3c(=O)[nH]2)c(OC)c1` [Example 17, 1,3-Dimethyl-5-(2,4-dimethoxyphenyl)pyrazolo[4,3-d]-pyrimidine-7-one], the IC50 on adenosine A1 receptor was found to be 5.43 µM. For the same compound, in the assay on Type 3 Phosphodiesterase, the “% Inhibition of hydrolysis of 3H-cAMP” value was found to be 17%. In addition, in the assay with Type 1 Phosphodiesterase, the “% Inhibition of hydrolysis of 3H-cAMP” value was found to be 15% and the “% Inhibition of hydrolysis of 3H-cGMP” value turned out to be 26%.

Consider `Cc1nn(C)c2c(=O)[nH]c(-c3ccc(Cl)cc3[N+](=O)[O-])nc12` [Example 18, 1,3-Dimethyl-5-(2-nitro-4-chlorophenyl)pyrazolo-[4,3-d]pyrimidine-7-one], for which, on adenosine A1 receptor, the half-inhibitory concentration (IC50) was found to be 8.5 µM. In addition, the “% Inhibition of hydrolysis of 3H-cAMP” value in the assay on Type 3 Phosphodiesterase and with Type 1 Phosphodiesterase was 7% in each case. Also, in the assay with Type 1 Phosphodiesterase, the “% Inhibition of hydrolysis of 3H-cGMP” value was 5%.

Regarding `Cc1nn(C)c2c(=O)[nH]c(-c3ccc(Cl)cc3N)nc12` [Example 19, 1,3-Dimethyl-5-(2-amino-4-chlorophenyl)pyrazolo[4,3-d]pyrimidine-7-one], the IC50 on adenosine A1 receptor worked out at 0.314 µM. The “% Inhibition of hydrolysis of 3H-cAMP” value in the assay on Type 3 Phosphodiesterase was determined as 5%. In the assay on Type 1 Phosphodiesterase, the “% Inhibition of hydrolysis of 3H-cAMP” value is on record as 16% and the “% Inhibition of hydrolysis of 3H-cGMP” value is reported as 12%.

Source of the values: patent publication US4666908A, “5-Substituted pyrazolo[4,3-d]pyrimidine-7-ones and methods of use” (Warner-Lambert Company, priority 1985, dated 1987).
